From publication PMC10376691, “Inhibition of Acetylcholinesterase and Amyloid-β Aggregation by Piceatannol and Analogs: Assessing In Vitro and In Vivo Impact on a Murine Model of Scopolamine-Induced Memory Impairment” (Antioxidants, 2023)
“Also recorded” adds a separate entry of the source. Read-outs that look alike come from different tables or passages of the source.

Tests used:
[1] = oral administration to rats; cited from earlier work
[2] = rats, cited from earlier work
SH-SY5Y cells [3] = test: Cytotoxicity on SH-SY5Y cells (MTT); assay type: cell-based; settings: 1, 2, 5 and 10 μM, MTT (Figure S1)
Method: The human SH-SY5Y neuroblastoma cell lines (CRL-2266, Lot No. 58979771) were purchased from American Type Culture Collection (Manassas, VA, USA) and used as models to investigate PIC and its analogs for neuroprotective activities against Aβ-induced cell deaths and the stimulation of neurite outgrowths. The SH-SY5Y cells were grown in DMEM/F-12 medium supplemented with 10% FBS at 37 °C under a humidified atmosphere and 5% CO2 [41]. […]. The SH-SY5Y cells (10,000 cells/well) were seeded and cultured in a DMEM/F-12 medium containing 10% FBS for 24 h at 37 °C under a humidified atmosphere and 5% CO2. […] The medium was then removed, and 40 μg/mL Aβ peptide (25–35) (dissolved in PBS) or an equal aliquot of PBS was added to the medium for another 24 h culture. The MTT was used to evaluate cell viability, and the absorbance at 570 nm was determined. The DMSO used instead of the sample solution was blank (recognized as 100%), and each treatment was expressed as relative cell viability (%). […] To measure cell viability and quantify the neurite outgrowths of the treated SH-SY5Y in a 96-well plate, the neurite outgrowth staining kit (a two-color fluorescence assay kit) was used, following a previous report or the protocol in the manufacturer’s manual (publication number: MAN0007224), which included a cell membrane-stained fluorescent dye (orange-red fluorescence), a cell viability indicator (green fluorescence), and a reagent for background masking. The fluorescence ratios of Ex555nm/Em565nm and Ex495nm/Em515nm were determined for the neurite outgrowths and the cell viabilities, respectively. […]
The following supporting information can be downloaded at: https://www.mdpi.com/article/10.3390/antiox12071362/s1. […] The MTT was used to evaluate cell viability, and the absorbance at 570 nm was determined. The DMSO used instead of the sample solution was blank (recognized as 100%), and each treatment was expressed as relative cell viability (%). […]

[4] = system: mouse brain microvascular endothelial cell models; settings: lipopolysaccharide-induced inflammation and oxidative stress; cited from earlier work
SH-SY5Y cells [5] = test: Neuroprotection against Aβ peptide (25–35)-induced cell deaths (MTT); assay type: cell-based, human; settings: pre-treatment 1, 2 and 10 μM for 24 h, then 40 μg/mL Aβ (25–35) 24 h; vs control p < 0.05
Method: The human SH-SY5Y neuroblastoma cell lines (CRL-2266, Lot No. 58979771) were purchased from American Type Culture Collection (Manassas, VA, USA) and used as models to investigate PIC and its analogs for neuroprotective activities against Aβ-induced cell deaths and the stimulation of neurite outgrowths. The SH-SY5Y cells were grown in DMEM/F-12 medium supplemented with 10% FBS at 37 °C under a humidified atmosphere and 5% CO2 [41]. […]. The SH-SY5Y cells (10,000 cells/well) were seeded and cultured in a DMEM/F-12 medium containing 10% FBS for 24 h at 37 °C under a humidified atmosphere and 5% CO2. […] The medium was then removed, and 40 μg/mL Aβ peptide (25–35) (dissolved in PBS) or an equal aliquot of PBS was added to the medium for another 24 h culture. The MTT was used to evaluate cell viability, and the absorbance at 570 nm was determined. The DMSO used instead of the sample solution was blank (recognized as 100%), and each treatment was expressed as relative cell viability (%). To study the stimulation of neurite outgrowth, the SH-SY5Y cells (5000 cells/well) were seeded on a 96-well plate pre-coated with poly-L-lysine and then cultured in the DMEM/F-12 medium containing 10% FBS overnight at 37 °C under a humidified atmosphere and 5% CO2. After being removed from the culture medium, each PIC, GNT, RHA, and isoRHA (at a final concentration of 10 μM in the 0.1%DMSO) or 0.1% DMSO (the control) was added to the DMEM/F-12 medium containing 10% FBS and refreshed every three days. On day 3 and day 6, each of the culture plates was photographed using an inverted microscope (ECLIPSE TS100, Nikon Instruments Inc., Tokyo, Japan). The culture medium was removed and washed with PBS, and the cultured cells in each well were fixed with 4% paraformaldehyde. To measure cell viability and quantify the neurite outgrowths of the treated SH-SY5Y in a 96-well plate, the neurite outgrowth staining kit (a two-color fluorescence assay kit) was used, following a previous report or the protocol in the manufacturer’s manual (publication number: MAN0007224), which included a cell membrane-stained fluorescent dye (orange-red fluorescence), a cell viability indicator (green fluorescence), and a reagent for background masking. The fluorescence ratios of Ex555nm/Em565nm and Ex495nm/Em515nm were determined for the neurite outgrowths and the cell viabilities, respectively. The value for the control was recognized as 100%, and each treatment was expressed relative to the control.

[6] = system: LPS-treated Swiss albino mice; settings: 6-day treatment 2.5 mg/kg/day, LPS 0.8 mg/kg i.p.; cited from earlier work
[7] = system: scopolamine-induced amnesiac ICR mice; test: Passive avoidance test in scopolamine-induced amnesiac ICR mice; assay type: in vivo, mouse; settings: PIC 50 mg/kg oral once a day, donepezil 5 mg/kg oral, scopolamine 1 mg/kg i.p.
Excerpt: The scopolamine-induced cognitive dysfunctions of amnesiac ICR mice were used to evaluate the effects of PIC pre-treatments on the improvement of learning and memory functions, following previous reports. The animal experimental protocols were reviewed and approved by the Institutional Animal Care and Use Committee, Taipei Medical University (No. LAC-2021-0488). After a two-week acclimation, the mice were randomly divided into four groups (N = 5 for each group). In the first stage, the mice in the PIC group were orally pre-treated with PIC (50 mg/kg) using a feeding tube, once a day from day 1 to day 7; the mice in the blank, control, and donepezil groups were treated with the same volume of distilled water from day 1 to day 7. In the second stage, on day 8 and day 9, the mice in the PIC group and the donepezil group were orally treated once with PIC (50 mg/kg) and donepezil (positive control, 5 mg/kg), respectively, using a feeding tube; the mice in the blank and the control groups were treated with the same volume of distilled water. After 30 min, each mouse was injected intraperitoneally with scopolamine (1 mg/kg, dissolved in PBS), and the mice in the blank group were each injected with an equal volume of PBS instead of the scopolamine solution. Again, 30 min after the scopolamine or PBS injection, a learning and memory evaluation was performed on each mouse with the use of a 2-day passive avoidance test. All the mice were sacrificed at the end of the animal experiments, and the brain tissues of the mice in each group were isolated, weighted, and stored at −80 °C for further use.
A 2-day passive avoidance test, which included an acquisition trial on the first day and a retention trial on the second day, was used to evaluate the learning and memory functions of the scopolamine-induced cognitive dysfunctions of amnesiac ICR mice after PIC and donepezil treatments, following previous reports. A shuttle chamber (AccuScan Instruments Inc., Columbus, OH, USA) with a light box and a dark box separated by a sliding door was used. On day 8, after acclimation around the shuttle chamber for 30 min, each scopolamine-injected or PBS-injected mouse was placed in the light box for the acquisition trial. Once the mouse entered the dark box, the step-through latency (s) was recorded, and the sliding door was closed at the same time. Immediately after, the mouse was administered an electric foot shock (0.3 mA for 3 s) via the wired metal floor and then sent back to the cage. […] The step-through latency (period of time that each mouse stayed in the light box) was recorded again. […] The protein content of the whole brain extracts from the mice was quantified using the BCA protein kit, with bovine serum albumin as the standard protein. […]

[8] = co-administration of PIC and RSV, each at 180 μmol/kg

## Oc1cc(O)cc(C=Cc2ccc(O)c(O)c2)c1 [PIC, 3,5,3′,4′-tetrahydroxystilbene]
[1]
  bioavailability: 50.7%
  half-life: 4.23 h
[2]; PIC 90 μmol/kg
  AUC0–8h of intact PIC/AUC0–8h of total PIC metabolites: 18.6%
[2]; PIC 180 μmol/kg
  AUC0–8h of intact PIC/AUC0–8h of total PIC metabolites: 23.9%
[2]; PIC 360 μmol/kg
  AUC0–8h of intact PIC/AUC0–8h of total PIC metabolites: 25.1%
[2]; [8]
  AUC0–8h in plasma, intact compound: 8.6 µM·h
  AUC0–8h of intact PIC/AUC0–8h of total PIC metabolites: 16.3%
[2]; intragastric, 90 μmol/kg
  AUC0–8h in plasma, intact compound: 4.3 µM·h
[2]; intragastric, 180 μmol/kg
  AUC0–8h in plasma, intact compound: 12.3 µM·h
[2]; intragastric, 360 μmol/kg
  AUC0–8h in plasma, intact compound: 20.6 µM·h
SH-SY5Y cells [3]
  cytotoxicity on SH-SY5Y cells: insignificant cytotoxicity
[4]
  BBB integrity: protect BBB integrity
SH-SY5Y cells [5]
  neuroprotection: cell viability against Aβ peptide (25–35)-induced cell deaths: elevated cell viabilities
[6]
  Aβ levels in brain extracts: reduce Aβ levels in brain extracts
  learning and memory functions: ameliorate
[7]
  step-through latency, acquisition trial (first day): no significant difference among the groups
[7]; vs control p < 0.05
  step-through latency, retention trial (second day): improved learning behavior; also recorded: longer staying time
